Biological target: p300 HAT domain (residues 1287-1666) (Homo sapiens (Human), UniProt Q09472)
Experiment: p300 HAT SPA assay (scintillation proximity assay, acetylation of biotinylated H3(1-21) peptide)
Assay type: biochemical
Settings: p300 HAT domain; average of at least 2 replicate titrations; read-out: P300 HAT SPA IC50
Description: In a typical experiment the p300 HAT inhibitory activity of the compounds described herein was determined in accordance with the following experimental method.
The expressed protein was purified by Ni2+ affinity, followed by anion exchange chromatography. Appropriate fractions were pooled and buffer exchanged into 20 mM Hepes pH 7.5, 150 mM NaCl, and 1 mM TCEP.
35 μL of the reaction volume was transferred to a 384-well streptavidin FlashPlate (PerkinElmer) using a Bravo liquid handler (Velocity 11) and incubated for 1.5 hr at RT. […] Data were analyzed in Genedata to determine inhibitor IC50 values.

p300 HAT domain (residues 1287-1666), sequence (Q09472 1287-1666): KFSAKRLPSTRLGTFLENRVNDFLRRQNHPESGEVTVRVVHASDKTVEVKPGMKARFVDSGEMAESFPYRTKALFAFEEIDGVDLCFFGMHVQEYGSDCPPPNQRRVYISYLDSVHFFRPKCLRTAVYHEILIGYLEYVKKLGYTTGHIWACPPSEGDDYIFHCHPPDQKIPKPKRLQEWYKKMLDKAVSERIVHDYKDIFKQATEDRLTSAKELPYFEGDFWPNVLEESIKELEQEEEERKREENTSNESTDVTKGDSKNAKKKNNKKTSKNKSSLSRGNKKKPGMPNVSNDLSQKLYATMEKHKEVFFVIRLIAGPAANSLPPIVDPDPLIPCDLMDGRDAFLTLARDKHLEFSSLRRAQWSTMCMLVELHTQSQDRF

Q: For CC(CNC(C(=O)c1cnn2cc(C(=O)NC[C@@H](C)O)ccc12)c1ccccc1)c1ccc(C#N)cc1 (single isomer, unassigned) [70 Isomer 3], which IC50 is on record?
A: Its IC50 is 0.747 µM.

Q: Which IC50 does the source give for CC(CNC(C(=O)c1cnn2cc(C(=O)NC[C@@H](C)O)ccc12)c1ccccc1)c1ccc(C#N)cc1 (single isomer, unassigned) [70 Isomer 4] here?
A: The IC50 was 0.0218 µM.

Q: How did the IC50 turn out when CCNC(=O)c1ccc2c(C(=O)C(NCCc3ccc(C#N)cc3Cl)c3ccccc3)c[nH]c2c1 (single isomer, unassigned) [71 Isomer 1] was run?
A: The IC50 was over 2 µM.

Q: With CCNC(=O)c1ccc2c(C(=O)C(NCCc3ccc(C#N)cc3Cl)c3ccccc3)c[nH]c2c1 (single isomer, unassigned) [71 Isomer 2] as the compound, how does the IC50 read?
A: The IC50 was 0.0177 µM.

Q: How did the IC50 turn out when Cn1cc(-c2ccc3c(C(=O)C(NCCc4ccc(C#N)cc4Cl)c4ccccc4)c[nH]c3c2)cn1 (single isomer, unassigned) [72 Isomer 1] was run?
A: The IC50 was 0.733 µM.

Q: For Cn1cc(-c2ccc3c(C(=O)C(NCCc4ccc(C#N)cc4Cl)c4ccccc4)c[nH]c3c2)cn1 (single isomer, unassigned) [72 Isomer 2], which IC50 is on record?
A: Its IC50 is 0.0424 µM.

Q: Which IC50 does the source give for CCNC(=O)c1ccc2c(C(=O)C(NCCc3ccc(C#N)cc3)c3ccccc3)cnn2c1 (single isomer, unassigned) [73 Isomer 1] here?
A: The IC50 was 0.286 µM.

Q: How did the IC50 turn out when CCNC(=O)c1ccc2c(C(=O)C(NCCc3ccc(C#N)cc3)c3ccccc3)cnn2c1 (single isomer, unassigned) [73 Isomer 2] was run?
A: Its IC50 is 0.954 µM.

Q: With O=C(c1c[nH]c2cc(N3CCCC3=O)ccc12)C(NCCc1ccc(Cl)cc1)c1ccccc1 (single isomer, unassigned) [74 Isomer 1] as the compound, how does the IC50 read?
A: The IC50 was 0.154 µM.

Q: O=C(c1c[nH]c2cc(N3CCCC3=O)ccc12)C(NCCc1ccc(Cl)cc1)c1ccccc1 (single isomer, unassigned) [74 Isomer 2] was tested. Which IC50 did it give?
A: The IC50 was 0.16 µM.

Q: CCNC(=O)c1ccc2c(C(=O)C(NCC(C)c3ccc(C#N)cc3)c3ccccc3)c[nH]c2c1 (single isomer, unassigned) [75 Isomer 1] was tested. Which IC50 did it give?
A: The IC50 was 0.718 µM.

Q: CCNC(=O)c1ccc2c(C(=O)C(NCC(C)c3ccc(C#N)cc3)c3ccccc3)c[nH]c2c1 (single isomer, unassigned) [75 Isomer 2] was tested. Which IC50 did it give?
A: The IC50 was 0.343 µM.

Q: Which IC50 does the source give for CCNC(=O)c1ccc2c(C(=O)C(NCC(C)c3ccc(C#N)cc3)c3ccccc3)c[nH]c2c1 (single isomer, unassigned) [75 Isomer 3] here?
A: Its IC50 is 0.447 µM.

Q: CCNC(=O)c1ccc2c(C(=O)C(C)NCCc3ccc(C#N)cc3)c[nH]c2c1 (single isomer, unassigned) [76 Isomer 1] was tested. Which IC50 did it give?
A: The IC50 was over 5 µM.

Q: With CCNC(=O)c1ccc2c(C(=O)C(C)NCCc3ccc(C#N)cc3)c[nH]c2c1 (single isomer, unassigned) [76 Isomer 2] as the compound, how does the IC50 read?
A: Its IC50 is over 5 µM.

Q: For Cn1cc(-c2ccc3c(C(=O)C(NCCc4ccc(F)cc4)c4ccccc4)c[nH]c3c2)cn1 (single isomer, unassigned) [78 Isomer 1], which IC50 is on record?
A: Its IC50 is 12.9 µM.

Q: Which IC50 does the source give for COc1ccc(CCNC(C(=O)c2c[nH]c3c(C)cccc23)c2ccccc2)cc1 (single isomer, unassigned) [80 Isomer 1] here?
A: The IC50 was 2.48 µM.

Q: For O=C(c1c[nH]c2cc(-c3cccnc3)ccc12)C(NCCc1ccc(F)cc1)c1ccccc1 (single isomer, unassigned) [81 Isomer 1], which IC50 is on record?
A: The IC50 was 12.3 µM.

Q: How did the IC50 turn out when Cn1cc(-c2ccc3c(C(=O)C(NCCc4ccc(Cl)cc4)c4ccccc4)c[nH]c3c2)cn1 (single isomer, unassigned) [83 Isomer 1] was run?
A: The IC50 was 1.31 µM.

Q: For Cn1cc(-c2ccc3c(C(=O)C(NCCc4ccc(F)cc4F)c4ccccc4)c[nH]c3c2)cn1 (single isomer, unassigned) [85 Isomer 1], which IC50 is on record?
A: The IC50 was over 30 µM.

Q: How did the IC50 turn out when CCn1cc(-c2ccc3c(C(=O)C(NCCc4ccc(Cl)cc4)c4ccccc4)c[nH]c3c2)cn1 (single isomer, unassigned) [86 Isomer 1] was run?
A: The IC50 was 28.1 µM.

Q: How did the IC50 turn out when CNC(=O)Cn1cc(-c2ccc3c(C(=O)C(NCCc4ccc(Cl)cc4)c4ccccc4)c[nH]c3c2)cn1 (single isomer, unassigned) [87 Isomer 1] was run?
A: Its IC50 is 1.39 µM.

Q: For Cc1ccc(-c2ccc3c(C(=O)C(NCCc4ccc(Cl)cc4)c4ccccc4)c[nH]c3c2)cn1 (single isomer, unassigned) [88 Isomer 1], which IC50 is on record?
A: The IC50 was over 30 µM.

Q: O=C(c1c[nH]c2cc(-c3ccncc3)ccc12)C(NCCc1ccc(Cl)cc1)c1ccccc1 (single isomer, unassigned) [89 Isomer 1] was tested. Which IC50 did it give?
A: The IC50 was 27.2 µM.

Q: With O=C(c1c[nH]c2cc(-c3ccncc3)ccc12)C(NCCc1ccc(Cl)cc1)c1ccccc1 (single isomer, unassigned) [89 Isomer 2] as the compound, how does the IC50 read?
A: Its IC50 is 0.966 µM.

Q: O=C(c1c[nH]c2cc(-c3cccnc3)ccc12)C(NCCc1ccc(Cl)cc1)c1ccccc1 (single isomer, unassigned) [90 Isomer 1] was tested. Which IC50 did it give?
A: The IC50 was 0.967 µM.

Q: For CC(CNC(C(=O)c1c[nH]c2cc(-c3cnn(C)c3)ccc12)c1ccccc1)c1ccc(Cl)cc1 (single isomer, unassigned) [91 Isomer 1], which IC50 is on record?
A: Its IC50 is 3.73 µM.

Q: How did the IC50 turn out when CC(CNC(C(=O)c1c[nH]c2cc(-c3cnn(C)c3)ccc12)c1ccccc1)c1ccc(Cl)cc1 (single isomer, unassigned) [91 Isomer 2] was run?
A: The IC50 was over 30 µM.

Q: How did the IC50 turn out when CC(CNC(C(=O)c1c[nH]c2cc(-c3cnn(C)c3)ccc12)c1ccccc1)c1ccc(Cl)cc1 (single isomer, unassigned) [91 Isomer 3] was run?
A: Its IC50 is 6.44 µM.

Q: CC(CNC(C(=O)c1c[nH]c2cc(-c3cnn(C)c3)ccc12)c1ccccc1)c1ccc(Cl)cc1 (single isomer, unassigned) [91 Isomer 4] was tested. Which IC50 did it give?
A: The IC50 was 0.134 µM.

Q: Which IC50 does the source give for CC(Cc1ccc(Cl)cc1)NC(C(=O)c1c[nH]c2cc(-c3cnn(C)c3)ccc12)c1ccccc1 (single isomer, unassigned) [92 Isomer 1] here?
A: Its IC50 is 2.1 µM.

Q: How did the IC50 turn out when CC(Cc1ccc(Cl)cc1)NC(C(=O)c1c[nH]c2cc(-c3cnn(C)c3)ccc12)c1ccccc1 (single isomer, unassigned) [92 Isomer 2] was run?
A: Its IC50 is over 30 µM.

Q: For CC(Cc1ccc(Cl)cc1)NC(C(=O)c1c[nH]c2cc(-c3cnn(C)c3)ccc12)c1ccccc1 (single isomer, unassigned) [92 Isomer 4], which IC50 is on record?
A: Its IC50 is 2.22 µM.

Q: Which IC50 does the source give for N#Cc1ccc(CCNC(C(=O)c2c[nH]c3cc(-c4cnn(CCO)c4)ccc23)c2ccccc2)cc1 (single isomer, unassigned) [95 Isomer 1] here?
A: Its IC50 is 0.816 µM.

Q: How did the IC50 turn out when COCCn1cc(-c2ccc3c(C(=O)C(NCCc4ccc(C#N)cc4)c4ccccc4)c[nH]c3c2)cn1 (single isomer, unassigned) [96 Isomer 1] was run?
A: Its IC50 is 0.182 µM.

Q: Which IC50 does the source give for N#Cc1ccc(CCNC(C(=O)c2c[nH]c3cc(-c4cn[nH]c4)ccc23)c2ccccc2)cc1 (single isomer, unassigned) [98 Isomer 1] here?
A: Its IC50 is 0.493 µM.

Q: With N#Cc1ccc(CCNC(C(=O)c2cnn3cc(-c4cn[nH]c4)ccc23)c2ccccc2)cc1 (single isomer, unassigned) [99 Isomer 1] as the compound, how does the IC50 read?
A: Its IC50 is 0.212 µM.

Q: Which IC50 does the source give for Cn1cc(-c2ccc3c(C(=O)C(NCCc4ccc(S(N)(=O)=O)cc4)c4ccccc4)cnn3c2)cn1 (single isomer, unassigned) [101 Isomer 1] here?
A: Its IC50 is 0.166 µM.

Q: For CC(CNC(C(=O)c1cnn2cc(-c3cnn(C)c3)ccc12)c1ccccc1)c1ccc(C#N)cc1 (single isomer, unassigned) [102 Isomer 1], which IC50 is on record?
A: Its IC50 is 1.88 µM.

Q: With CC(CNC(C(=O)c1cnn2cc(-c3cnn(C)c3)ccc12)c1ccccc1)c1ccc(C#N)cc1 (single isomer, unassigned) [102 Isomer 2] as the compound, how does the IC50 read?
A: The IC50 was 0.239 µM.

Q: How did the IC50 turn out when CC(CNC(C(=O)c1cnn2cc(-c3cnn(C)c3)ccc12)c1ccccc1)c1ccc(C#N)cc1 (single isomer, unassigned) [102 Isomer 3] was run?
A: The IC50 was 0.212 µM.

Source: patent US11414384B2, “P300/CBP hat inhibitors” (Constellation Pharmaceuticals, Inc., priority 2018, dated 2022)
